# Source: ChEMBL document CHEMBL1201862, “PubChem BioAssay data set” (2004)
# The source made the active and inactive calls.
# Key:
# [1] = viability of uninfected HEp-2 cells – cell-based, HTS, cytotoxicity control for RSV inhibitor project, dose response (AID 2410); type: functional; conditions: human respiratory syncytial virus
# [2] = biological target: T1, Heat shock factor protein 1 (Mus musculus, UniProt P38532); test: decrease of HSF1-responsive luciferase luminescence – cell-based, NIH3T3, dose retest, confirmation (AID 2382); type: functional;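 also: NIH3T3 fibroblasts with HSF1-driven luciferase reporter stressed by proteasome inhibitor MG132; luminescence from HSF1-driven luciferase expression after 8 hours of MG132 stress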
# T1 sequence (P38532 whole entry): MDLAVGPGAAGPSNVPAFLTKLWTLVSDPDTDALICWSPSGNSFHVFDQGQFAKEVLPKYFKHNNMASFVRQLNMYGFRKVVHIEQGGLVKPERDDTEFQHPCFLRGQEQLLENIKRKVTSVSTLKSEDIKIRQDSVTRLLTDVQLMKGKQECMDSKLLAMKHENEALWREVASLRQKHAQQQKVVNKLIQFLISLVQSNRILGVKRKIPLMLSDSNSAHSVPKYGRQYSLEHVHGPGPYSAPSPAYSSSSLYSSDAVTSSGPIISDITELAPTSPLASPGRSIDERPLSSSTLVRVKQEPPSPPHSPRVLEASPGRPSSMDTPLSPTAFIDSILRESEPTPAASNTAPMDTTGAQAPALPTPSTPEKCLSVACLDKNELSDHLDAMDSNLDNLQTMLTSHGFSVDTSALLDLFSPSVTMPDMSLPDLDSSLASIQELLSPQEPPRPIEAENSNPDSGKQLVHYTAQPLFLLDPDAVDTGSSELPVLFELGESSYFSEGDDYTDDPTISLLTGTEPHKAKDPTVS
# Cytochrome P450 2D6 = Cytochrome P450 2D6 (Homo sapiens, UniProt P10635);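 also: CYP2D6 member of a cytochrome P450 panel assay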
# Chain of Cytochrome P450 2D6 (P10635 whole entry): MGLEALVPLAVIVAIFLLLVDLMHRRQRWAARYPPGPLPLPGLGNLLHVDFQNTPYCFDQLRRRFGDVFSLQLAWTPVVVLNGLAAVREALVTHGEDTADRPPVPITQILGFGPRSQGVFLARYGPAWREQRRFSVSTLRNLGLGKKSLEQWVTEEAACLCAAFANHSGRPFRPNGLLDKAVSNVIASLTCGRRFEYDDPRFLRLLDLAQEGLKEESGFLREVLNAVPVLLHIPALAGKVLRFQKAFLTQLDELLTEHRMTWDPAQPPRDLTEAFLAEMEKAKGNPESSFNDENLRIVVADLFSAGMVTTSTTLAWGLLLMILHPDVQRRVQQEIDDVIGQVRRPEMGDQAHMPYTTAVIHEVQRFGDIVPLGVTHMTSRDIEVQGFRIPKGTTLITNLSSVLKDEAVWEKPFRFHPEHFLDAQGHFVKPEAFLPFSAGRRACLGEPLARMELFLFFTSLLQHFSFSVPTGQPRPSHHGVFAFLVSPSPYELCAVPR
# Cytochrome P450 3A4 = Cytochrome P450 3A4 (Homo sapiens, UniProt P08684);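 also: CYP3A4 tested as one member of a cytochrome P450 panel screen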
# Chain of Cytochrome P450 3A4 (P08684 whole entry): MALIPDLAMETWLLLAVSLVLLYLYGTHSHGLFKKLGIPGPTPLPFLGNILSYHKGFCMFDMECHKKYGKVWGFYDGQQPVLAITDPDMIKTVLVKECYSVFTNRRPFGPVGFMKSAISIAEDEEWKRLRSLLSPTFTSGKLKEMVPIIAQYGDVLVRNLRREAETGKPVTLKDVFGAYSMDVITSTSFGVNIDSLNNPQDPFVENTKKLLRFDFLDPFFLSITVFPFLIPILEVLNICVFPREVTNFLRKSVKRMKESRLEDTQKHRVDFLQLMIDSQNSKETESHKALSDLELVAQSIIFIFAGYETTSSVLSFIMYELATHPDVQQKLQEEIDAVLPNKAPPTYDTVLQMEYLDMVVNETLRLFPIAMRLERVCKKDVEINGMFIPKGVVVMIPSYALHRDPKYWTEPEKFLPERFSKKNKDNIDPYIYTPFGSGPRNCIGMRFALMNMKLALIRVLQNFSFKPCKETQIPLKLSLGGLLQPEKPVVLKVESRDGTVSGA
# Cytochrome P450 2C9 = Cytochrome P450 2C9 (Homo sapiens, UniProt P11712)
# Chain of Cytochrome P450 2C9 (P11712 whole entry): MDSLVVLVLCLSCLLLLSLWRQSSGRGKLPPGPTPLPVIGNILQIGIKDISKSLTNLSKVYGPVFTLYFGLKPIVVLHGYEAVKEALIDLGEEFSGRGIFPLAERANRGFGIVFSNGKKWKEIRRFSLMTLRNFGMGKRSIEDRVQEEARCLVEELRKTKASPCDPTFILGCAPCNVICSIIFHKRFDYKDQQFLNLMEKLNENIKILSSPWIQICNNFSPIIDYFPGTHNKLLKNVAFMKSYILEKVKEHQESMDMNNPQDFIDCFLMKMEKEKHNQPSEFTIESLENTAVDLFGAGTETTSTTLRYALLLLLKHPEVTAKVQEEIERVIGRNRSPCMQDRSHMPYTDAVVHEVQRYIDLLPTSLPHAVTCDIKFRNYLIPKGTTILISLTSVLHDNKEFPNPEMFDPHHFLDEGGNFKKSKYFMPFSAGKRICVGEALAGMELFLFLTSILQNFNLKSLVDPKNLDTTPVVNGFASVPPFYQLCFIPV
# Cytochrome P450 1A2 = biological target: T2, Cytochrome P450 1A2 (Homo sapiens, UniProt P05177);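 also: PubChem cytochrome P450 panel assay, CYP1A2 panel member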
# T2 sequence (P05177 whole entry): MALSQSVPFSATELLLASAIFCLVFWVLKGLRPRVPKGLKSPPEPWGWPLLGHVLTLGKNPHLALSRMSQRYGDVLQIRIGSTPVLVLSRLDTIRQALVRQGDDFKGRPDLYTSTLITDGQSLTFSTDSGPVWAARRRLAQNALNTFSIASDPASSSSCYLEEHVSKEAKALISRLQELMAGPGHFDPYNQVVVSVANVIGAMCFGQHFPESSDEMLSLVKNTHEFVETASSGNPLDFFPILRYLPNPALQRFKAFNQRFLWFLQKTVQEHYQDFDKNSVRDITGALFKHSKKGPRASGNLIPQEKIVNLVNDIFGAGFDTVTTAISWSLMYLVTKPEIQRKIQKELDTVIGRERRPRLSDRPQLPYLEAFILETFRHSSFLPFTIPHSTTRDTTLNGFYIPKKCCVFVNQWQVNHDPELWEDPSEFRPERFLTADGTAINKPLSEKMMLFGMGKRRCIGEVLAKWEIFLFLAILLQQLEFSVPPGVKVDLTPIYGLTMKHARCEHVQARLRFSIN
# Cytochrome P450 2C19 = Cytochrome P450 2C19 (Homo sapiens, UniProt P33261); test: Cytochrome panel assay with activity outcomes. Panel member name: p450-cyp2c19 Compounds with AC50 equal or less than 10 uM are considered active; type: functional; conditions: read-out: AC50
# Chain of Cytochrome P450 2C19 (P33261 whole entry): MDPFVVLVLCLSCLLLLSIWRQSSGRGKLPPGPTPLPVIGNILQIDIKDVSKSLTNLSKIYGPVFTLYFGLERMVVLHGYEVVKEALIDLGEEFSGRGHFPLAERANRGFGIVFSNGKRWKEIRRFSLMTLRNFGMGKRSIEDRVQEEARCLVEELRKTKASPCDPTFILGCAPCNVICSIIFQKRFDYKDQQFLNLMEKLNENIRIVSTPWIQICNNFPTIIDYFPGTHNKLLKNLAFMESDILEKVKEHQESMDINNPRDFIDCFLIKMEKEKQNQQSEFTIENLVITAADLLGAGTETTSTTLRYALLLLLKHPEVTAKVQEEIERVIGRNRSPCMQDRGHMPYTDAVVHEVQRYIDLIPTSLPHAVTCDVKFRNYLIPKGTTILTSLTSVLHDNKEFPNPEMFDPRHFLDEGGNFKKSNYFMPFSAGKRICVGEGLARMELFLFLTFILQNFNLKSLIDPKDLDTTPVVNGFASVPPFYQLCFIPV
# [3] = Trypanosoma cruzi growth suppression in host cells – NIH3T3 host cells, beta-gal luminescence, confirmation (AID 2044); type: functional, cell-based;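 also: intracellular parasites grown in NIH/3T3 mouse fibroblasts as host cells; luminescent beta-galactosidase reporter signal from transgenic T. cruzi replicating inside host cells; inhibitors lower the luminescence signal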
# [4] = NIH3T3 cell viability loss – ATP luminescence, mouse fibroblasts, counter-screen, dose response (AID 2010); type: functional, cell-based;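 also: cells exposed to compound for about 90 hours before reading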
smiles,measurement,setting,value
Cc1cc2cc3c(cc2nc1SCC(=O)N1c2ccccc2CC1C)OCO3 (centres undefined),CC50,[1],34 µM (active)
O=C(COC(=O)C1=COCCO1)Nc1ccc2c(c1)OCO2,EC50,[2],> 195 µM (not active)
CCOC(=O)c1c(C)[nH]c(C(=O)N2CCc3cc(OC)c(OC)cc3C2)c1C,CC50,[1],34.8 µM (active)
CNc1oc(-c2ccc(Cl)cc2)nc1C#N,AC50,Cytochrome P450 2D6,22.4 µM (inconclusive)
same,AC50,Cytochrome P450 3A4,14.1 µM (inconclusive)
same,AC50,Cytochrome P450 2C9,8.91 µM (inconclusive)
CN(C)CCCNc1c2c(=O)n(C)c(=O)nc-2n(C)c2ccccc12,AC50,Cytochrome P450 1A2,5.01 µM (inconclusive)
COc1ccc(-c2cc(C(F)(F)F)n3ncc(C(=O)N(C)Cc4ccccc4)c3n2)cc1,CC50,[1],32.9 µM (active)
O=C(Cc1ccccc1)N/N=C/c1cc(Br)c(Br)o1,AC50,Cytochrome P450 3A4,28.2 µM (inconclusive)
Cc1cccc(-c2nnc(NC(=O)c3cccs3)s2)c1,EC50,[2],> 195 µM (not active)
O=C(Nc1ccc(/C=C/c2nc3ccccc3o2)cc1)c1c(F)cccc1F,CC50,[1],> 50 µM (active)
CCCNC(=O)OC[C@@H]1O[C@H](CCO/N=C\c2ccc(C(=O)N3[C@H](c4ccc(C)cc4)[C@@H](C)CC[C@H]3C(=O)OC)cc2)C=C[C@@H]1Oc1ccc(OC)cc1,AC50,Cytochrome P450 2C19,1.26 µM (inconclusive)
same,AC50,Cytochrome P450 3A4,3.16 µM (inconclusive)
COc1ccccc1CN1CC[C@@]2(CCCN(S(=O)(=O)c3ccccc3)C2)C1,AC50,Cytochrome P450 1A2,25.1 µM (inconclusive)
N#CCCn1c(=O)c(-c2ccc(F)cc2)nc2cnc(Oc3cccc(Cl)c3)nc21,AC50,Cytochrome P450 1A2,0.501 µM (inconclusive)
CN(C)S(=O)(=O)c1ccc(C(=O)OCCCNC2=NS(=O)(=O)c3ccccc32)cc1,EC50,[2],26 µM (active)
CC1CCN(S(=O)(=O)c2ccc(C(=O)Nc3nnc(-c4ccccn4)o3)cc2)CC1,EC50,[2],45.5 µM (active)
Cc1nc2cnc(Oc3ccccc3)nc2n(CCC#N)c1=O,AC50,Cytochrome P450 1A2,20 µM (inconclusive)
same,AC50,Cytochrome P450 3A4,25.1 µM (inconclusive)
O=C(COc1ccc2ccccc2c1)N1CCN(CC2CC3C=CC2C3)CC1 (centres undefined),AC50,Cytochrome P450 1A2,22.4 µM (inconclusive)
Cc1ccc(C(=N)c2ccccc2Cc2cccc3ccccc23)c2ccccc12,AC50,Cytochrome P450 2D6,2.51 µM (inconclusive)
same,AC50,Cytochrome P450 1A2,1 µM (inconclusive)
CCc1nc2ccc(C(=O)O)cc2nc1CC,EC50,[2],6.93 µM (active)
O=C(Nc1ccc(N2CCCC2)c(Cl)c1)c1ccc(Br)o1,CC50,[1],30.6 µM (active)
same,EC50,[3],1.63 µM (active)
same,EC50,[4],> 60 µM (not active)
Cc1ccc2nc(-c3ccccc3)c(CN(C)C)c(O)c2c1,AC50,Cytochrome P450 2C19,20 µM (inconclusive)
same,AC50,Cytochrome P450 1A2,15.8 µM (inconclusive)
same,AC50,Cytochrome P450 2C9,12.6 µM (inconclusive)
Cc1ccc(-c2ccc(=O)n(CC(=O)N3CCN(c4cccc(C)c4)C(C)C3)n2)cc1 (centres undefined),AC50,Cytochrome P450 2D6,28.2 µM (inconclusive)
same,AC50,Cytochrome P450 1A2,20 µM (inconclusive)
same,AC50,Cytochrome P450 2C9,20 µM (inconclusive)
C#CCOC(=O)Nc1ccc(=O)n(Cc2c(Cl)cccc2Cl)c1,AC50,Cytochrome P450 2D6,20 µM (inconclusive)
same,AC50,Cytochrome P450 1A2,12.6 µM (inconclusive)
O=C(O)c1cccc(NC(=S)N/N=C/c2cccnc2)c1,EC50,[2],> 195 µM (not active)
C1CCC(Nc2nnnn2C2CCCCC2)CC1,EC50,[2],> 195 µM (not active)
Cc1c([C@@H](C)[C@H]2NC[C@H](C)C[C@@H]2O)ccc2c1C[C@@H]1[C@H]2CC=C2C[C@@H](O)CC[C@@]21C,AC50,Cytochrome P450 3A4,3.16 µM (inconclusive)
C=CC/N=C1\S/C(=C\c2ccc(Cl)cc2)C(=O)N1CC=C,CC50,[1],44.3 µM (active)
O=C(Nc1ccc(-c2csc(Nc3ccccc3)n2)cc1)c1cc([N+](=O)[O-])cc(C(F)(F)F)c1,CC50,[1],14.6 µM (active)
O=c1c(-c2ccccc2)nc2cnc(N3CCNCC3)nc2n1-c1ccccc1,AC50,Cytochrome P450 3A4,20 µM (inconclusive)
O=C(O)CCC(=O)c1ccc(-c2ccccc2)cc1 [FENBUFEN],AC50,Cytochrome P450 1A2,12.6 µM (inconclusive)
Cc1nc2ccccc2c(=O)n1NC(=O)c1ccccc1Cl,AC50,Cytochrome P450 1A2,15.8 µM (inconclusive)
same,AC50,Cytochrome P450 3A4,22.4 µM (inconclusive)
O=C(NCC1CCCO1)c1ccc2c(=O)n(Cc3ccco3)c(SCC(=O)N3CCCC3)nc2c1 (centres undefined),AC50,Cytochrome P450 2C19,15.8 µM (inconclusive)
same,AC50,Cytochrome P450 3A4,12.6 µM (inconclusive)
COc1ccc(CN2/C(=N/C(=O)CCC3CCCC3)SC3CS(=O)(=O)CC32)cc1 (centres undefined),EC50,[2],> 195 µM (not active)
CC(=O)C1C(=O)c2c(cccc2[N+](=O)[O-])/C1=N\c1ccc(S(N)(=O)=O)cc1 (centres undefined),EC50,[2],> 195 µM (not active)
C[n+]1c(/C=C/c2ccc(O)c3ncccc23)[se]c2ccccc21,AC50,Cytochrome P450 2C19,3.98 µM (inconclusive)
same,AC50,Cytochrome P450 3A4,3.98 µM (inconclusive)
same,AC50,Cytochrome P450 2C9,6.31 µM (inconclusive)
CCCCNc1nc2cccnc2s1,EC50,[2],> 195 µM (not active)
CC1CCCCN1CC(=O)Nc1ccccc1Sc1ccccc1 (centres undefined),EC50,[2],> 195 µM (not active)
CC(C)c1ccc(NC2(C#N)C(=O)Nc3ccccc32)cc1 (centres undefined),EC50,[2],> 195 µM (not active)
CC(C)(C)c1ccc(OC(=O)c2cccnc2)cc1,EC50,[2],> 195 µM (not active)
O=S(=O)(NC(=Nc1ccc(F)cc1F)c1ccc(Cl)cc1)c1ccccc1,AC50,Cytochrome P450 3A4,2.82 µM (inconclusive)
O=C(O)/C=C/c1cn(-c2ncc(C(F)(F)F)cc2Cl)c2ccccc12,AC50,Cytochrome P450 2C19,14.1 µM (inconclusive)
same,AC50,Cytochrome P450 1A2,35.5 µM (inconclusive)
same,AC50,Cytochrome P450 2C9,17.8 µM (inconclusive)
c1ccc(CCNCc2ccco2)nc1,AC50,Cytochrome P450 2D6,2.51 µM (inconclusive)
same,AC50,Cytochrome P450 1A2,6.31 µM (inconclusive)
COc1ccc(C(=O)C(OC(=O)CNC(=O)c2ccco2)c2ccccc2)cc1 (centres undefined),AC50,Cytochrome P450 2D6,35.5 µM (inconclusive)
same,AC50,Cytochrome P450 1A2,31.6 µM (inconclusive)
COc1ccc(Nc2nc(N)nc(CSc3n[nH]c(-c4ccccc4)n3)n2)cc1,AC50,Cytochrome P450 2D6,3.55 µM (inconclusive)
same,AC50,Cytochrome P450 3A4,3.98 µM (inconclusive)
same,AC50,Cytochrome P450 2C9,12.6 µM (inconclusive)
CC1(C)CC(=O)c2cc(OCC(=O)N3CCN(c4ccccc4F)CC3)ccc2O1,EC50,[2],> 195 µM (not active)
CCOc1ccc(N2CSC(=S)N(c3ccc(OCC)cc3)C2)cc1,EC50,[2],> 195 µM (not active)
O=C(CCS(=O)(=O)c1cccs1)N1CCN(c2ccc(F)cc2)CC1,AC50,Cytochrome P450 1A2,31.6 µM (inconclusive)
same,AC50,Cytochrome P450 2C9,2.51 µM (inconclusive)
O=C(O)c1c(Cl)c(Cl)c(Cl)c(Cl)c1C(=O)Nc1ccc2cn[nH]c2c1,AC50,Cytochrome P450 2D6,3.98 µM (inconclusive)
same,AC50,Cytochrome P450 3A4,3.98 µM (inconclusive)
CCN(CC)C(=O)COC(=O)c1ccc(C)c(NC(=O)c2ccco2)c1,EC50,[2],> 195 µM (not active)
COC(=O)CCC(=O)Nc1cccc(C(=O)Nc2cccc(Cl)c2)c1,AC50,Cytochrome P450 2D6,22.4 µM (inconclusive)
same,AC50,Cytochrome P450 3A4,0.398 µM (inconclusive)
O=C(COC(=O)c1ccccc1SCC(=O)N1CCCC1)NC1CCS(=O)(=O)C1 (centres undefined),EC50,[2],> 195 µM (not active)
Cc1ccc(C)c(C(=O)CN2C3=NCCCN3c3ccccc32)c1,AC50,Cytochrome P450 2C19,39.8 µM (inconclusive)
same,AC50,Cytochrome P450 3A4,12.6 µM (inconclusive)
CCOC(=O)C1CCCN(c2nc3ccccc3nc2C(C#N)C(=O)OCCOC)C1 (centres undefined),CC50,[1],41.7 µM (active)
Cc1ccc2nc(NC(=O)c3ccc(NS(=O)(=O)c4cccs4)cc3)sc2c1,CC50,[1],25.1 µM (active)
